Holding throughout (assay): relative viability (nuclei count vs DMSO), 5 days (fraction); higher = more cells survive
Compound in the test “CX-5461 + Dasatinib”: Cc1cnc(CNC(=O)c2c(=O)c3ccc(N4CCCN(C)CC4)nc3n3c2sc2ccccc23)cn1 [CX-5461] + Cc1nc(Nc2ncc(C(=O)Nc3c(C)cccc3Cl)s2)cc(N2CCN(CCO)CC2)n1 [Dasatinib] (partner 0.075 µM)
Put shortly: (§1)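 Lung cancer cell lines in 1536-well plates were dosed by pin tool the day after seeding, either with one drug alone or with a fixed anchor-drug dose plus five library-drug doses (not always all listed) in √10 steps. After 5 days, cells were fixed and their nuclei stained in one step (final 0.05% Triton X-100, 1% formaldehyde, 1 ug/ml Hoechst), then counted on 4× images. Relative viability is the nuclei count in treated wells divided by that in vehicle wells. Values are medians of duplicate plates.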

Compound in the test “IMD-0354 + Trametinib”: O=C(Nc1cc(C(F)(F)F)cc(C(F)(F)F)c1)c1cc(Cl)ccc1O [IMD-0354] + CC(=O)Nc1cccc(-n2c(=O)n(C3CC3)c(=O)c3c(Nc4ccc(I)cc4F)n(C)c(=O)c(C)c32)c1 [Trametinib] (partner 0.02 µM)
Put shortly:
as §1

Compound in the test “IMD-0354 + Navitoclax”: O=C(Nc1cc(C(F)(F)F)cc(C(F)(F)F)c1)c1cc(Cl)ccc1O [IMD-0354] + CC1(C)CCC(c2ccc(Cl)cc2)=C(CN2CCN(c3ccc(C(=O)NS(=O)(=O)c4ccc(N[C@H](CCN5CCOCC5)CSc5ccccc5)c(S(=O)(=O)C(F)(F)F)c4)cc3)CC2)C1 [Navitoclax] (partner 0.5 µM)
A digest of the protocol: as §1

Compound in the test “IMD-0354 + OSI-027”: O=C(Nc1cc(C(F)(F)F)cc(C(F)(F)F)c1)c1cc(Cl)ccc1O [IMD-0354] + COc1cccc2cc(-c3nc([C@H]4CC[C@H](C(=O)O)CC4)n4ncnc(N)c34)[nH]c12 [OSI-027] (partner 0.5 µM)
Put shortly:
as §1

The text below walks through data of the supplement of paper PMC10307832.

With UMC-11, the relative viability with CX-5461 + Dasatinib (first compound 0.01 µM) was found to be 0.446; with CX-5461 + Dasatinib (first compound 0.03162 µM), 0.519; in the test with CX-5461 + Dasatinib (first compound 0.1 µM), 0.364; with CX-5461 + Dasatinib (first compound 0.3162 µM), 0.39; with CX-5461 + Dasatinib (first compound 1 µM), 0.246; with IMD-0354 + Trametinib (first compound 0.04 µM), 0.745. In addition, the relative viability in the test with IMD-0354 + Trametinib (first compound 0.1265 µM) was found to be 0.808; with IMD-0354 + Trametinib (first compound 0.4 µM) it was 0.337; with IMD-0354 + Trametinib (first compound 1.265 µM), 0.194; in the test with IMD-0354 + Trametinib (first compound 4 µM), 0.246; in the test with IMD-0354 + Navitoclax (first compound 0.04 µM), 0.338; with IMD-0354 + Navitoclax (first compound 0.1265 µM), 0.276. In addition, the relative viability was 0.29 in the test with IMD-0354 + Navitoclax (first compound 0.4 µM); 0.112 with IMD-0354 + Navitoclax (first compound 1.265 µM); 0.149 in the test with IMD-0354 + Navitoclax (first compound 4 µM); 0.57 in the test with IMD-0354 + OSI-027 (first compound 0.04 µM); 0.469 with IMD-0354 + OSI-027 (first compound 0.1265 µM); 0.3 in the test with IMD-0354 + OSI-027 (first compound 0.4 µM). Besides, the relative viability came to 0.215 with IMD-0354 + OSI-027 (first compound 1.265 µM) and 0.205 in the test with IMD-0354 + OSI-027 (first compound 4 µM).
